# In patent publication US8440652B2, “MST1 kinase inhibitors and methods of their use” (Lexicon Pharmaceuticals, Inc., priority 2011, dated 2013):
# Read-outs that look alike come from different tables or passages of the source.
# Columns and labels:
# MST1 = target: T1, MST1 (Homo sapiens, UniProt Q13043); experiment: In vitro measurement of MST1 inhibition (Z′-Lyte kinase assay); assay type: biochemical
# T1 sequence (Q13043 1-487): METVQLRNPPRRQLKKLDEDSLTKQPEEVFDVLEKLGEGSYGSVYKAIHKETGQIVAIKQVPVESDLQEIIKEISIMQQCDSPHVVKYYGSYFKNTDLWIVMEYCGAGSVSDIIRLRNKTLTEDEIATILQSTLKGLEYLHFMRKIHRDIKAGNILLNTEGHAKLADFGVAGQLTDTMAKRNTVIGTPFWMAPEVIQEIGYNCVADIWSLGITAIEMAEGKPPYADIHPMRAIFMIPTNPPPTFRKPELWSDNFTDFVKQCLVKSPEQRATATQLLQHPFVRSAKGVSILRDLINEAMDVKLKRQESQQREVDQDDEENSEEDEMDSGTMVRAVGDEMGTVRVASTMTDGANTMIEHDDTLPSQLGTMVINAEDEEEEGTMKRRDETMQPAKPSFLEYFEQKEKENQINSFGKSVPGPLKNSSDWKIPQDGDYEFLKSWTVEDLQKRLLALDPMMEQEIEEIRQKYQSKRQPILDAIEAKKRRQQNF
# mouse EAE model = experiment: Mouse EAE disease model; assay type: in vivo; conditions: mice, subcutaneous dosing, 3 mg/kg, 10 mg/kg BID 12 days from Day 9 after MOG immunization; FIG. 9A
# Method: Here, an adaptation of the method of Bettelli, et al., J. Immunol. 161:3299 (1998) was implemented. Eight to 12 weeks old C57Bl/6-Albino/129SvEv littermates were immunized subcutaneously with a total of 300 μg MOGp35-55 peptide ([…]) emulsified in complete Freund's adjuvant (CFA) containing 250 μg heat-inactivated Mycobacterium tuberculosis H37 Ra (Difco Laboratories). The antigen was divided equally across two injection sites in the abdominal flanks. Immediately following the injection of the emulsified antigen (day 0), each mouse received one intravenous injection of 500 ng of Pertussis toxin (List Biological Laboratories). Animal weights were recorded prior to the start of the experiment and monitored throughout the experiment, 2-3 times per week. Disease severity was scored on a scale as follows: 0=asymptomatic, no detectable sign of disease; 1=slight weakness of the tail/floppy tail and/or slumped hindquarters; 2=definite total paralysis of the tail; 3=mild waddle/distorted gait and total paralysis of the tail and/or mild impaired righting reflex; 4=heavy waddle with impaired control-weakness of hind limbs and/or impaired righting reflex; 5=paralysis of one of the hind limbs possibly with mild forelimb weakness; 6=paralysis of both hind limbs and/or moderate to severe forelimb weakness; 7=quadriplegia/paralysis of all limbs—hind and fore; 8=moribund/dead. […]
structure (smiles),measurement,setting,value
"CN(C1CC1)S(=O)(=O)c1ccc(-c2cnc(N)c(-c3ccc4c(c3)CCNC4=O)n2)cc1 [4-(5-amino-6-(1-oxo-1,2,3,4-tetrahydroisoquinolin-6-yl)pyrazin-2-yl)-N-cyclopropyl-N-methylbenzenesulfonamide]",IC50,"MST1; 1 μM ATP, read-out: IC50 (μM) 1 μM ATP",< 0.01 µM
same,IC50,"MST1; 50 μM ATP, read-out: IC50 (μM) 50 μM ATP",< 0.01 µM
same,clinical score,mouse EAE model,clear dose-dependency in clinical score
